IC50 and melting point data for 56 molecules are collected here from patent publication US7645881B2, “Methods for treating hepatitis C” (PTC Therapeutics, Inc., priority 2004, dated 2010).

The melting point is the temperature, or range, at which the solid turns liquid.

Series [1] deals with HCV replicon. The series is described as follows: microbe, parasite or virus in culture. The class given is cell-based. The following applies: Hepatitis C virus, 48 h, read-out: Replicon IC50s μM. For orientation: Replicon systems follow genome replication, usually without infectious particles.

With `CCc1c(C)nc2sc(C(=O)NCc3ccccc3)c(-c3ccc(OC)cc3)c2c1C` [Compound 44], the IC50 in series [1] is over 2 µM.

Take `CCc1c(C)nc2sc(C(=O)SC(C)(C)C)c(N)c2c1C` [Compound 56]: the IC50 in series [1] is over 2 µM.

Consider `Cc1nc2sc(C(=O)OC(C)(C)C)c(N)c2c(C)c1OCCN(C)C` [Compound 72], for which, in series [1], the IC50 is over 2 µM.

Molecule `Cc1nc2sc(-c3nnc(-c4cccc(Cl)c4)o3)c(N)c2c(C)c1C` [Compound 11] returned a melting point of 302 to 303 °C. Also, the IC50 in series [1] was over 2 µM.

`CC(C)(C)OC(=O)c1sc2nc3c(c(-c4ccco4)c2c1N)CCCC3` [Compound 32]: the IC50 in series [1] is over 2 µM.

`Cc1nc2sc(C(=O)OC(C)(C)C)c(N)c2c(C)c1OCCN1CCN(CCCN(C)C)CC1` [Compound 69]: the IC50 in series [1] is 0.5 to 2 µM.

For `CCN1CCN(CCOc2c(C)nc3sc(C(=O)OC(C)(C)C)c(N)c3c2C)CC1` [Compound 74], the IC50 in series [1] was over 2 µM.

`Cc1nc2sc(-c3noc(-c4ccccc4)n3)c(N)c2c(C)c1C` [Compound 21] gave a melting point of 248 to 250 °C. In addition, the IC50 in series [1] is under 0.5 µM.

Molecule `Cc1nc2sc(C(=O)OC(C)(C)C)c(N)c2c(C)c1OCCN1CCN(C)CC1` [Compound 71] displayed a melting point of 155.4 to 155.5 °C. For the same molecule, in series [1], the IC50 is over 2 µM.

Take `CCc1c(C)nc2sc(C(=O)SC(C)(C)C)cc2c1C` [Compound 65]: the melting point was 109.6 to 110.2 °C. Further, the IC50 in series [1] lay within 0.5 to 2 µM.

In the case of `CCc1c(C)nc2sc(C(=O)OC(C)(C)C)c(-c3cccc(C#N)c3)c2c1C` [Compound 36], the IC50 in series [1] is over 2 µM.

As to `Nc1c(C(=O)Nc2ccc(Br)cc2)sc2nc3c(c(-c4ccco4)c12)CCCCC3` [Compound 51], the IC50 in series [1] was over 2 µM.

Regarding `Cc1nc2sc(C(=O)OC(C)(C)C)c(N)c2c(C)c1OCCN1CCOCC1` [Compound 67, t-butyl 3-amino-4,6-dimethyl-5-(2-morpholin-4-yl-ethoxy)-thieno[2,3-b]pyridine-2-carboxylate], the melting point is 102 to 104 °C. Further, the IC50 in series [1] is over 2 µM.

As to `Cc1cc(CO)c2c3c(sc2n1)C(=O)NC(c1ccccc1)N3` (stereo not drawn) [Compound 38, 4-hydroxymethyl-2-methyl-6-phenyl-6,7-dihydro-5H-9-thia-1,5,7-triaza-fluoren-8-one], the IC50 in series [1] was over 2 µM.

Consider `CC1(C)Cc2c(c(N3CCOCC3)nc3sc(C(N)=O)c(N)c23)CO1` [Compound 4], for which the IC50 in series [1] is over 2 µM.

With `Cc1nc2sc(C(=O)OC(C)(C)C)c(N)c2c(C)c1OCCN(C)CCN(C)C` [Compound 73], the IC50 in series [1] fell in the range of 0.5 to 2 µM.

For the molecule `Cc1cccc(-c2nnc(-c3sc4nc(C)c(C)c(C)c4c3N)o2)c1` [Compound 7], the melting point lay within 268 to 270 °C. Besides, the IC50 in series [1] lay within 0.5 to 2 µM.

As for `CC(C)(C)NC(=O)c1sc2nc3c(c(-c4cccs4)c2c1N)CCCCC3` [Compound 48], the melting point lay in the range of 184 to 185 °C. Further, the IC50 in series [1] is over 2 µM.

For `Cc1nc2sc(-c3nnc(-c4ccc(Cl)s4)o3)c(N)c2c(C)c1C` [Compound 9], the melting point fell in the range of 284 to 286 °C. Moreover, the IC50 in series [1] is 0.5 to 2 µM.

In turn, `CCc1c(C)nc2sc(-c3nnc(-c4ccccc4)o3)c(N)c2c1C` [Compound 6, 5-ethyl-4,6-dimethyl-2-(5-phenyl-[1,3,4]oxadiazol-2-yl)-thieno[2,3-b]pyridin-3-yl amine] displayed a melting point of 306 to 307 °C. In addition, the IC50 in series [1] was 0.5 to 2 µM.

`COc1ccccc1-c1nnc(-c2sc3nc(C)c(C)c(C)c3c2N)o1` [Compound 23] showed a melting point of 238 to 240 °C. The IC50 in series [1] is 0.5 to 2 µM.

Take `CCc1c(C)nc2sc(NC(=O)C(C)C)c(C#N)c2c1C` [Compound 53]: the melting point is 189 to 190 °C. The IC50 in series [1] is over 2 µM.

Turning to `N#Cc1cccc(-c2sc3nc4c(c(-c5cccs5)c3c2C#N)CCCCC4)c1` [Compound 61], the melting point lay within 159 to 162 °C. Moreover, the IC50 in series [1] is over 2 µM.

Regarding `COCCN1CCN(CCOc2c(C)nc3sc(C(=O)OC(C)(C)C)c(N)c3c2C)CC1` [Compound 66], the melting point was 79 to 81 °C. Also, the IC50 in series [1] was over 2 µM.

Take `Cc1nc2sc(-c3nc(COc4ccc(Cl)c(Cl)c4)no3)c(N)c2c(C)c1C` [Compound 18]: the melting point lay in the range of 197 to 200 °C. For the same molecule, in series [1], the IC50 was in the range of 0.5 to 2 µM.

Turning to `Cc1ccccc1-c1nnc(-c2sc3nc(C)c(C)c(C)c3c2N)o1` [Compound 13], the melting point lay within 261 to 262 °C. Besides, the IC50 in series [1] was under 0.5 µM.

`Nc1c(C(=O)N2CCOCC2)sc2nc3c(cc12)CCCCC3` [Compound 1] displayed a melting point of 203 to 204 °C. In addition, in series [1], the IC50 is over 2 µM.

On to `CCc1c(C)nc2sc(C(=O)OC(C)(C)C)c(-c3ccc(OC)cc3)c2c1C` [Compound 37, t-butyl 5-ethyl-3-(4-methoxy-phenyl)-4,6-dimethyl-thieno[2,3-b]pyridine-2-carboxylate], for which the IC50 in series [1] was over 2 µM.

With `Cc1nc2sc(-c3nc(-c4cccnc4)no3)c(N)c2c(C)c1C` [Compound 25], the melting point lay in the range of 278 to 280 °C. Also, the IC50 in series [1] was 0.5 to 2 µM.

As for `Cc1nc2sc(-c3nnc(-c4ccccc4F)o3)c(N)c2c(C)c1C` [Compound 14], the melting point was in the range of 287 to 288 °C. Also, the IC50 in series [1] was under 0.5 µM.

Turning to `CC(C)(C)c1cc(C(F)(F)F)c2c(N)c(C(N)=O)sc2n1` [Compound 2], in series [1], the IC50 was over 2 µM.

`CC(C)(C)OC(=O)c1sc2nc3c(c(-c4cccs4)c2c1N)CCCC3` [Compound 34]: the IC50 in series [1] was over 2 µM.

Take `CC(C)(C)OC(=O)c1sc2nc3c(c(-c4cccc(F)c4F)c2c1N)CCCCC3` [Compound 31]: in series [1], the IC50 was over 2 µM.

In the case of `COc1ccc(Nc2sc3nc4c(c(-c5cccs5)c3c2C#N)CCCCC4)cc1` [Compound 64], the IC50 in series [1] is over 2 µM.

Molecule `COc1ccccc1-c1noc(-c2sc3nc(C)c(C)c(C)c3c2N)n1` [Compound 20] displayed a melting point of 244 to 245 °C. In addition, in series [1], the IC50 is 0.5 to 2 µM.

As to `Cc1nc2sc(-c3nc(-c4ccccc4)no3)c(N)c2c(C)c1C` [Compound 24, 4,5,6-trimethyl-2-(3-phenyl-[1,2,4]oxadiazol-5-yl)-thieno[2,3-b]pyridin-3-ylamine], the melting point was 276 to 278 °C. Besides, the IC50 in series [1] is under 0.5 µM.

For `Nc1c(C(=O)Nc2ccccc2)sc2nc3c(cc12)CCCCC3` [Compound 28], the IC50 in series [1] is over 2 µM.

`CC(C)(C)OC(=O)c1sc2nc3c(c(-c4cccs4)c2c1N)CCCCC3` [Compound 45, tert-butyl 3-amino-4-thiophen-2-yl-6,7,8,9-tetrahydro-5H-1-thia-10-aza-cyclohepta[f]indene-2-carboxylate]: the melting point fell in the range of 202.9 to 203.1 °C. In addition, the IC50 in series [1] was over 2 µM.

Turning to `CCc1c(C)nc2sc(C(=O)OC(C)(C)C)c(N)c2c1C` [Compound 3, tert-Butyl 3-amino-5-ethyl-4,6-dimethylthieno[2,3-B]pyridine-2-carboxylate], the melting point lay in the range of 135 to 136 °C. For the same molecule, in series [1], the IC50 is 0.5 to 2 µM.

In turn, `CCCCNc1cc(C)c2c(N)c(C(N)=O)sc2n1` [Compound 17] registered a melting point of 169 to 170 °C. In addition, the IC50 in series [1] was in the range of 0.5 to 2 µM.

For `COc1ccc(-c2sc3nc4c(c(-c5cccs5)c3c2C#N)CCCCC4)cc1` [Compound 63, 2-(4-methoxyphenyl)-4-thiophen-2-yl-6,7,8,9-tetrahydro-5H-1-thia-10-aza-cyclohepta[f]indene-3-carbonitrile], the melting point fell in the range of 179.2 to 179.6 °C. In addition, the IC50 in series [1] was over 2 µM.

The molecule `CCOC(=O)c1sc2nc3c(c(-c4ccco4)c2c1N)CCC3` [Compound 46] registered a melting point of 157.6 to 157.7 °C. Moreover, the IC50 in series [1] was over 2 µM.

In turn, `Cc1nc2sc(-c3nnc(-c4ccccc4Cl)o3)c(N)c2c(C)c1C` [Compound 15] returned a melting point of 284 to 286 °C. The IC50 in series [1] lay within 0.5 to 2 µM.

Molecule `Cc1nc2sc(C(=O)OC(C)(C)C)c(N)c2c(C)c1-c1ccccc1` [Compound 55] yielded a melting point of 212 to 213 °C. Also, the IC50 in series [1] was over 2 µM.

As for `Cc1nc2sc(-c3nnc(-c4cccc(F)c4)o3)c(N)c2c(C)c1C` [Compound 8], the melting point fell in the range of 300 to 302 °C. The IC50 in series [1] lay in the range of 0.5 to 2 µM.

`N#Cc1c(Br)sc2nc3c(c(-c4cccs4)c12)CCCCC3` [Compound 60] displayed a melting point of 196.4 to 196.7 °C. Also, in series [1], the IC50 was over 2 µM.

In turn, `CCc1c(C)nc2sc(NC(=O)C3CCCC3)c(C#N)c2c1C` [Compound 49, cyclopentanecarboxylic acid (3-cyano-5-ethyl-4,6-dimethyl-thieno[2,3-b]pyridin-2-yl)amide] displayed a melting point of 228 to 230 °C. Besides, the IC50 in series [1] was over 2 µM.

For the molecule `CCc1c(C)nc2sc(C(=O)OC(C)(C)C)c(-c3ccc4c(c3)OCO4)c2c1C` [Compound 39], the melting point lay in the range of 151 to 152 °C. The IC50 in series [1] was over 2 µM.

Take `N#Cc1c(C(=O)Nc2ccccc2)sc2nc3c(c(-c4cccs4)c12)CCCCC3` [Compound 57]: the melting point lay in the range of 215.3 to 215.7 °C. For the same molecule, the IC50 in series [1] is over 2 µM.

As to `CCc1c(C)nc2sc(C(=O)N3CCCCC3)c(-c3ccc(OC)cc3)c2c1C` [Compound 41], in series [1], the IC50 was over 2 µM.

`Cc1nc2sc(-c3nc(-c4cccs4)no3)c(N)c2c(C)c1C` [Compound 19] had a melting point of 281 to 282 °C. In series [1], the IC50 was under 0.5 µM.

`Cc1nc2sc(-c3noc(-c4cccs4)n3)c(N)c2c(C)c1C` [Compound 22] came in with a melting point of 260 to 265 °C. Moreover, the IC50 in series [1] was under 0.5 µM.

With `Cc1cc(-c2cccs2)c2c(N)c(C#N)sc2n1` [Compound 30], in series [1], the IC50 was over 2 µM.

As for `Cc1nc2sc(C(=O)OC(C)(C)C)c(N)c2c(C)c1OCCN1CCCN(C)CC1` [Compound 68], in series [1], the IC50 fell in the range of 0.5 to 2 µM.

In the case of `Cc1nc2sc(C(=O)OC(C)(C)C)c(N)c2c(C)c1OCCN1CCCCC1` [Compound 70], the IC50 in series [1] lay within 0.5 to 2 µM.

As for `CC(C)(C)OC(=O)c1sc2nc3c(c(-c4ccco4)c2c1N)CCC3` [Compound 33], the IC50 in series [1] is over 2 µM.
